Measurements as given in ChEMBL document CHEMBL2413072, “Synthesis and in vitro anticancer studies of novel C-2 arylidene congeners of lantadenes” (2013).

Legend:
Format in all cases: functional
UACC-62 = test: Growth inhibition of human UACC62 cells assessed as cell growth at 10^-4 M by sulforhodamine B assay; settings: read-out: Activity
786-0 [1] = test: Growth inhibition of human 786-0 cells by sulforhodamine B assay
OVCAR-5 [2] = test: Growth inhibition of human OVCAR5 cells assessed as cell growth at 10^-8 M by sulforhodamine B assay; settings: read-out: Activity
SW-620 = test: Growth inhibition of human SW620 cells assessed as cell growth at 10^-4 M by sulforhodamine B assay; settings: read-out: Activity
MOLT-4 = test: Growth inhibition of human MOLT4 cells assessed as cell growth at 10^-7 M by sulforhodamine B assay; settings: read-out: Activity
[3] = Growth inhibition of human NCI-ADR-RES cells assessed as cell growth at 10^-4 M by sulforhodamine B assay; settings: read-out: Activity
SK-MEL-5 = test: Growth inhibition of human SK-MEL-5 cells assessed as cell growth at 10^-6 M by sulforhodamine B assay; settings: read-out: Activity
SNB-75 = test: Growth inhibition of human SNB75 cells assessed as cell growth at 10^-4 M by sulforhodamine B assay; settings: read-out: Activity
OVCAR-4 [4] = test: Growth inhibition of human OVCAR4 cells assessed as cell growth at 10^-7 M by sulforhodamine B assay; settings: read-out: Activity
786-0 [5] = test: Growth inhibition of human 786-0 cells assessed as cell growth at 10^-8 M by sulforhodamine B assay; settings: read-out: Activity
NCI-H322M = test: Growth inhibition of human NCI-H322M cells assessed as cell growth at 10^-4 M by sulforhodamine B assay; settings: read-out: Activity
CCRF-CEM = test: Growth inhibition of human CCRF-CEM cells assessed as cell growth at 10^-6 M by sulforhodamine B assay; settings: read-out: Activity
HT-29 = test: Growth inhibition of human HT-29 cells assessed as cell growth at 10^-6 M by sulforhodamine B assay; settings: read-out: Activity
UACC-257 = test: Growth inhibition of human UACC257 cells assessed as cell growth at 10^-6 M by sulforhodamine B assay; settings: read-out: Activity
MDA-MB-231 [6] = test: Growth inhibition of human MDA-MB-231 cells assessed as cell growth at 10^-4 M by sulforhodamine B assay; settings: read-out: Activity
MDA-MB-468 [7] = test: Growth inhibition of human MDA-MB-468 cells assessed as cell growth at 10^-4 M by sulforhodamine B assay; settings: read-out: Activity
BT-549 = test: Growth inhibition of human BT549 cells assessed as cell growth at 10^-8 M by sulforhodamine B assay; settings: read-out: Activity
UO-31 = test: Growth inhibition of human UO31 cells assessed as cell growth at 10^-7 M by sulforhodamine B assay; settings: read-out: Activity
[8] = Growth inhibition of human HCC2998 cells by sulforhodamine B assay
DU-145 = test: Growth inhibition of human DU145 cells assessed as cell growth at 10^-4 M by sulforhodamine B assay; settings: read-out: Activity
MDA-MB-468 [9] = test: Growth inhibition of human MDA-MB-468 cells assessed as cell growth at 10^-7 M by sulforhodamine B assay; settings: read-out: Activity
HL-60(TB) = test: Growth inhibition of human HL-60(TB) cells assessed as cell growth at 10^-7 M by sulforhodamine B assay; settings: read-out: Activity
[10] = Growth inhibition of human HCC2998 cells assessed as cell growth at 10^-4 M by sulforhodamine B assay; settings: HCC 2998, read-out: Activity
[11] = Growth inhibition of human NCI-ADR-RES cells by sulforhodamine B assay
SN12C = test: Growth inhibition of human SN12C cells assessed as cell growth at 10^-4 M by sulforhodamine B assay; settings: read-out: Activity
OVCAR-4 [12] = test: Growth inhibition of human OVCAR4 cells assessed as cell growth at 10^-8 M by sulforhodamine B assay; settings: read-out: Activity
OVCAR-5 [13] = test: Growth inhibition of human OVCAR5 cells assessed as cell growth at 10^-6 M by sulforhodamine B assay; settings: read-out: Activity
A498 [14] = test: Growth inhibition of human A498 cells by sulforhodamine B assay
SF-295 [15] = test: Growth inhibition of human SF295 cells assessed as cell growth at 10^-7 M by sulforhodamine B assay; settings: read-out: Activity
SF-268 [16] = test: Growth inhibition of human SF268 cells assessed as cell growth at 10^-4 M by sulforhodamine B assay; settings: read-out: Activity
PC-3 = test: Growth inhibition of human PC3 cells assessed as cell growth at 10^-7 M by sulforhodamine B assay; settings: read-out: Activity
SR = test: Growth inhibition of human SR cells assessed as cell growth at 10^-4 M by sulforhodamine B assay; settings: read-out: Activity
ACHN = test: Growth inhibition of human ACHN cells assessed as cell growth at 10^-4 M by sulforhodamine B assay; settings: read-out: Activity
KM12 = test: Growth inhibition of human KM12 cells assessed as cell growth at 10^-6 M by sulforhodamine B assay; settings: read-out: Activity
OVCAR-3 = test: Growth inhibition of human OVCAR3 cells assessed as cell growth at 10^-7 M by sulforhodamine B assay; settings: read-out: Activity
SF-268 [17] = test: Growth inhibition of human SF268 cells assessed as cell growth at 10^-6 M by sulforhodamine B assay; settings: read-out: Activity
SF-295 [18] = test: Growth inhibition of human SF295 cells assessed as cell growth at 10^-8 M by sulforhodamine B assay; settings: read-out: Activity
A498 [19] = test: Growth inhibition of human A498 cells assessed as cell growth at 10^-6 M by sulforhodamine B assay; settings: read-out: Activity
Malme-3M = test: Growth inhibition of human MALME-3M cells by sulforhodamine B assay
U-251 = test: Growth inhibition of human U251 cells assessed as cell growth at 10^-7 M by sulforhodamine B assay; settings: read-out: Activity
HCT-15 = test: Growth inhibition of human HCT15 cells assessed as cell growth at 10^-7 M by sulforhodamine B assay; settings: read-out: Activity
MDA-MB-231 [20] = test: Growth inhibition of human MDA-MB-231 cells by sulforhodamine B assay
[21] = read-out: LC50 (the source's name)
[22] = read-out: pLC50 (the source's name) (converted)

Work on `CC(C)=CC(=O)O[C@@H]1CC(C)(C)C[C@H]2C3=CC[C@@H]4[C@@]5(C)CCC(=O)C(C)(C)[C@@H]5CC[C@@]4(C)[C@]3(C)CC[C@@]12C(=O)O` yielded a growth at 100 µM (UACC-62) of -80%, a GI50 (786-0 [1]; read-out: GI50) of 3.69 µM and a CC50 (786-0 [1]; [21]) of over 100 µM. It also gave a TGI (786-0 [1]; read-out: TGI) of 20.2 µM, a GI50 (786-0 [1]; read-out: pGI50 (converted)) of 3.72 µM and a CC50 (786-0 [1]; [22]) of over 100 µM. It also gave a TGI (786-0 [1]; read-out: pTGI (converted)) of 20 µM, a growth at 0.01 µM (OVCAR-5 [2]) of 94% and a growth at 100 µM (SW-620) of -22%. For the same compound, the growth at 0.1 µM (MOLT-4) was 100%, the growth at 100 µM [3] was 14% and the growth at 1 µM (SK-MEL-5) was 60%. The growth at 100 µM (SNB-75) was -31%, the growth at 0.1 µM (OVCAR-4 [4]) was 97% and the growth at 0.01 µM (786-0 [5]) was 99%. For the same compound, the growth at 100 µM (NCI-H322M) was -25%, the growth at 1 µM (CCRF-CEM) was 71% and the growth at 1 µM (HT-29) was 82%. It also gave a growth at 1 µM (UACC-257) of 83%, a growth at 100 µM (MDA-MB-231 [6]) of -64% and a growth at 100 µM (MDA-MB-468 [7]) of -37%. For the same compound, the growth at 0.01 µM (BT-549) was 114%, the growth at 0.1 µM (UO-31) was 91% and the GI50 ([8]; HCC 2998, read-out: GI50) was 3.05 µM. For the same compound, the CC50 ([8]; HCC 2998, read-out: LC50 (the source's name)) was 58.6 µM, the TGI ([8]; HCC 2998, read-out: TGI) was 13.4 µM and the GI50 ([8]; HCC 2998, read-out: pGI50 (converted)) was 3.02 µM. The CC50 ([8]; HCC 2998, read-out: pLC50 (the source's name) (converted)) was 58.9 µM, the TGI ([8]; HCC 2998, read-out: pTGI (converted)) was 13.5 µM and the growth at 100 µM (DU-145) was -51%. It also gave a growth at 0.1 µM (MDA-MB-468 [9]) of 89%, a growth at 0.1 µM (HL-60(TB)) of 93% and a growth at 100 µM [10] of -68%. For the same compound, the GI50 ([11]; read-out: GI50) was 3.75 µM, the CC50 [11, 21] was over 100 µM and the TGI ([11]; read-out: TGI) was over 100 µM. It also gave a GI50 ([11]; read-out: pGI50 (converted)) of 3.72 µM, a CC50 [11, 22] of over 100 µM and a TGI ([11]; read-out: pTGI (converted)) of over 100 µM. For the same compound, the growth at 100 µM (SN12C) was -38%, the growth at 0.01 µM (OVCAR-4 [12]) was 99% and the growth at 1 µM (OVCAR-5 [13]) was 86%. For the same compound, the GI50 (A498 [14]; read-out: GI50) was 1.59 µM, the CC50 (A498 [14]; [21]) was over 100 µM and the TGI (A498 [14]; read-out: TGI) was 14.2 µM. It also gave a GI50 (A498 [14]; read-out: pGI50 (converted)) of 1.58 µM, a CC50 (A498 [14]; [22]) of over 100 µM and a TGI (A498 [14]; read-out: pTGI (converted)) of 14.1 µM. It also gave a growth at 0.1 µM (SF-295 [15]) of 83%, a growth at 100 µM (SF-268 [16]) of -38% and a growth at 0.1 µM (PC-3) of 86%. The growth at 100 µM (SR) was -15%, the growth at 100 µM (ACHN) was -31% and the growth at 1 µM (KM12) was 48%. It also gave a growth at 0.1 µM (OVCAR-3) of 100%, a growth at 1 µM (SF-268 [17]) of 93% and a growth at 0.01 µM (SF-295 [18]) of 86%. It also gave a growth at 1 µM (A498 [19]) of 61%, a GI50 (Malme-3M; read-out: GI50) of 11.4 µM and a CC50 (Malme-3M; [21]) of over 100 µM. For the same compound, the TGI (Malme-3M; read-out: TGI) was 81 µM, the GI50 (Malme-3M; read-out: pGI50 (converted)) was 11.5 µM and the CC50 (Malme-3M; [22]) was over 100 µM. It also gave a TGI (Malme-3M; read-out: pTGI (converted)) of 81.3 µM, a growth at 0.1 µM (U-251) of 90% and a growth at 0.1 µM (HCT-15) of 86%. The GI50 (MDA-MB-231 [20]; read-out: GI50) was 4.03 µM, the CC50 (MDA-MB-231 [20]; [21]) was 71.1 µM and the TGI (MDA-MB-231 [20]; read-out: TGI) was 21.8 µM. It also gave a GI50 (MDA-MB-231 [20]; read-out: pGI50 (converted)) of 4.07 µM, a CC50 (MDA-MB-231 [20]; [22]) of 70.8 µM and a TGI (MDA-MB-231 [20]; read-out: pTGI (converted)) of 21.9 µM.
